Laboratory results: patent US10414811B2, “Protease-resistant lipidated GLP-1 analogs” (MEDIMMUNE LIMITED, priority 2015, dated 2019)
Read-outs that look alike come from different tables or passages of the source. Numbered stars: 1 amine (or outer) side, 2 acyl side, 3 side chain; on linkers, the order of the positions; unused ones are H or OH. Square brackets hold non-standard residues; d marks the D form. Side chains are listed from the residue outwards. Peptide text beside a SMILES is read from it. * marks the point of attachment. C18 diacid = O=C(O)CCCCCCCCCCCCCCCCC(=O)*; γGlu = O=C(O)[C@H](CCC(=O)[*:2])N[*:1]; αMeF = C[C@](N)(Cc1ccccc1)C(=O)O; αMeK = C[C@](N)(CCCCN)C(=O)O; Lauroyl = CCCCCCCCCCCC(=O)*; αMeS = C[C@](N)(CO)C(=O)O; AEEA = NCCOCCOCC(=O)O; Aib = CC(C)(N)C(=O)O

Experiments:
Assay type in all cases: cell-based
[1] = target: T1, human GLP-1 receptor (GLP-1R) (Homo sapiens, UniProt P43220); experiment: cAMP assay, human GLP-1R cells
T1 construct: expressed in transfected cells
In short: (§1)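 Peptide-stimulated cAMP measured by two-step HTRF after a 30 min room-temperature incubation with receptor-expressing cells (hGLP-1R, hGIPR at 1×10^5 cells/ml; hGCGR at 2×10^5 cells/ml). Duplicate dilutions; EC50 from 4-parameter logistic fit of % Delta F.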

[2] = target: T2, human glucagon receptor (GCGR) (Homo sapiens, UniProt P47871); experiment: cAMP assay, human GCGR cells
T2 construct: expressed in transfected cells
In short: as §1

[3] = target: T3, human glucose-dependent insulinotropic peptide receptor (GIPR) (Homo sapiens, UniProt P48546); experiment: cAMP assay, human GIPR cells
T3 construct: expressed in transfected cells
T3 sequence (P48546 22-466): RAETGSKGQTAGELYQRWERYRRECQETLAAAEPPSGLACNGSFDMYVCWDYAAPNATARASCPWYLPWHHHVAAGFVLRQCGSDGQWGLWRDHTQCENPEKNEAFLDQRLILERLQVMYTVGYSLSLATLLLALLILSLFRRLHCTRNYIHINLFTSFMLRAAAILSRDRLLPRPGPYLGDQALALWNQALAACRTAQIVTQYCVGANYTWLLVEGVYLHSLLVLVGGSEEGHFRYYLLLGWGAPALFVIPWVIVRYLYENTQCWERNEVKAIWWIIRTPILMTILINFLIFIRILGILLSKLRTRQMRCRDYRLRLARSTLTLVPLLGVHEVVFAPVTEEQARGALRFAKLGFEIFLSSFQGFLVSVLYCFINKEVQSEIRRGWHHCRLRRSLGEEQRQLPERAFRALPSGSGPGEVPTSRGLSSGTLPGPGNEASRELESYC
In short: as §1

[4] = cAMP assay, first determination (n1), read-out: Primary assay EC50 GLP-1R n1
[5] = cAMP assay, second determination (n2), read-out: Primary assay EC50 GLP-1R n2
[6] = mean of n1 and n2, read-out: Mean pM GLP-1R
[7] = cAMP assay, first determination (n1), read-out: Primary assay EC50 Gluc-R (n1)
[8] = cAMP assay, second determination (n2), read-out: Primary assay EC50 Gluc-R (n2)
[9] = cAMP assay, first determination (n1), read-out: Primary assay EC50 GIP-R (n1)
[10] = cAMP assay, second determination (n2), read-out: Primary assay EC50 GIP-R (n2)

T2 sequence (P47871 26-477): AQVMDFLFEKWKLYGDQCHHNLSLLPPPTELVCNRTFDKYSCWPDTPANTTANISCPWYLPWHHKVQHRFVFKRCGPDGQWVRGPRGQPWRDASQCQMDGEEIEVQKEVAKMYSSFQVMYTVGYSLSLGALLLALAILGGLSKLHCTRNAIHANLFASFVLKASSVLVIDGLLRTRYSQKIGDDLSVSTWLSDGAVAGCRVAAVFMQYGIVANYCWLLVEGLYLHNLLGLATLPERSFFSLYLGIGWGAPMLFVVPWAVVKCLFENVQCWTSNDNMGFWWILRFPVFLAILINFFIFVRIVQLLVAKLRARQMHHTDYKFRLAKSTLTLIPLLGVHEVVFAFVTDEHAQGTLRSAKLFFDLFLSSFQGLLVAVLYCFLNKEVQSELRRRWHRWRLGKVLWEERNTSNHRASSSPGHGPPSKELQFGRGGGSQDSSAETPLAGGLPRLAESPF
T1 sequence (P43220 24-463): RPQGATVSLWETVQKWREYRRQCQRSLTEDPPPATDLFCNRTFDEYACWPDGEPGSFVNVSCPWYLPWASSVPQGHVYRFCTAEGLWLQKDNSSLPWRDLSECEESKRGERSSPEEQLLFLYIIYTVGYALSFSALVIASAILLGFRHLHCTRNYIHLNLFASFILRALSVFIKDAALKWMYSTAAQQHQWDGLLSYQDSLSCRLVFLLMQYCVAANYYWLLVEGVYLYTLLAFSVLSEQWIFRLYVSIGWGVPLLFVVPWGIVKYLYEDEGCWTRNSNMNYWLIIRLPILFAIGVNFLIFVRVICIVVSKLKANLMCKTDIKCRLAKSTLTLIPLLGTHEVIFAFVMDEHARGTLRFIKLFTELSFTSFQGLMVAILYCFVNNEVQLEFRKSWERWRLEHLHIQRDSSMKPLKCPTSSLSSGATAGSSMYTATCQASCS

Compound	EC50 [1, 4] [pM]	EC50 [1, 5] [pM]	EC50 [1, 6] [pM]	EC50 ([2]; Primary assay EC50 Gluc-R (n1), cAMP assay, first determination (n1)) [nM]	EC50 ([2]; read-out: Primary assay EC50 Gluc-R (n2), cAMP assay, second determination (n2)) [nM]	EC50 ([3]; Primary assay EC50 GIP-R (n1), cAMP assay, first determination (n1)) [nM]	EC50 ([3]; read-out: Primary assay EC50 GIP-R (n2), cAMP assay, second determination (n2)) [nM]	EC50 [2, 7] [nM]	EC50 [2, 8] [nM]	EC50 [3, 9] [nM]	EC50 [3, 10] [nM]	EC50 ([1]; tris-lipidated peptides, mean of n1 and n2, read-out: Primary assay EC50 Mean pM GLP-1R) [pM]	EC50 ([1]; tris-lipidated peptides, replicate n1, read-out: Primary assay EC50 GLP-1R n1) [pM]	EC50 ([1]; tris-lipidated peptides, replicate n2, read-out: Primary assay EC50 GLP-1R n2) [pM]	EC50 ([2]; tris-lipidated peptides, second replicate, read-out: Primary assay EC50 Gluc-R (n2)) [nM]	EC50 ([3]; tris-lipidated peptides, first replicate, read-out: Primary assay EC50 GIP-R (n1)) [nM]
CC[C@H](C)[C@H](NC(=O)[C@](C)(Cc1ccccc1)NC(=O)[C@H](CCC(=O)O)NC(=O)[C@H](CCCCNC(=O)CC[C@H](NC(=O)CC[C@H](NC(=O)CCCCCCCCCCCOc1ccc(C(=O)O)cc1)C(=O)O)C(=O)O)NC(=O)[C@H](C)NC(=O)[C@H](C)NC(=O)[C@H](CCC(=O)O)NC(=O)CNC(=O)[C@H](CCC(=O)O)NC(=O)[C@H](CC(C)C)NC(=O)[C@](C)(Cc1ccccc1)NC(=O)[C@H](CO)NC(=O)[C@](C)(CO)NC(=O)[C@@H](NC(=O)[C@H](CC(=O)O)NC(=O)[C@H](CO)NC(=O)[C@@H](NC(=O)[C@](C)(Cc1ccccc1)NC(=O)[C@H](CO)NC(=O)CNC(=O)[C@H](CCC(=O)O)NC(=O)C(C)(C)NC(=O)[C@@H](N)Cc1c[nH]cn1)[C@@H](C)O)C(C)C)C(=O)N[C@@H](C)C(=O)N[C@@](C)(Cc1ccccc1)C(=O)N[C@H](C(=O)N[C@H](C(=O)N[C@@](C)(CCCCN)C(=O)NCC(=O)NCC(N)=O)C(C)C)C(C)C [compound 138]	19	15	17.2	≥ 26	≥ 26	≥ 26	≥ 26									
CC[C@H](C)[C@H](NC(=O)[C@H](Cc1ccccc1)NC(=O)[C@H](CCC(=O)O)NC(=O)[C@H](CCCCN)NC(=O)[C@H](C)NC(=O)[C@H](C)NC(=O)[C@H](CCC(N)=O)NC(=O)CNC(=O)[C@H](CCC(=O)O)NC(=O)[C@H](CC(C)C)NC(=O)[C@H](Cc1ccc(O)cc1)NC(=O)[C@H](CO)NC(=O)[C@H](CO)NC(=O)[C@@H](NC(=O)[C@H](CC(=O)O)NC(=O)C(C)(C)NC(=O)[C@@H](NC(=O)[C@H](Cc1ccccc1)NC(=O)[C@@H](NC(=O)CNC(=O)[C@H](CCC(=O)O)NC(=O)C(C)(C)NC(=O)[C@@H](N)Cc1c[nH]cn1)[C@@H](C)O)[C@@H](C)O)C(C)C)C(=O)N[C@@H](C)C(=O)N[C@@H](Cc1c[nH]c2ccccc12)C(=O)N[C@@H](CC(C)C)C(=O)N[C@H](C(=O)N[C@@H](CCCCN)C(=O)NCC(=O)N[C@@H](CCCNC(=N)N)C(N)=O)C(C)C [compound 20] (H-H[Aib]EGTFT[Aib]DVSSYLEGQAAKEFIAWLVKGR-NH2)	15000	12000	13500					≥ 290	≥ 290	≥ 290	≥ 290					
CCCCCCCCCCCC(=O)N[C@@H](CCC(=O)NCCOCCOCC(=O)NCCOCCOCC(=O)NCCCC[C@H](NC(=O)CNC(=O)[C@H](CCC(=O)O)NC(=O)[C@H](CC(C)C)NC(=O)[C@H](CCCCNC(=O)COCCOCCNC(=O)COCCOCCNC(=O)CC[C@H](NC(=O)CCCCCCCCCCC)C(=O)O)NC(=O)[C@H](CO)NC(=O)[C@](C)(CO)NC(=O)[C@@H](NC(=O)[C@H](CC(=O)O)NC(=O)[C@H](CO)NC(=O)[C@@H](NC(=O)[C@](C)(Cc1ccccc1)NC(=O)[C@H](CO)NC(=O)CNC(=O)[C@H](CCC(=O)O)NC(=O)C(C)(C)NC(=O)[C@@H](N)Cc1c[nH]cn1)[C@@H](C)O)C(C)C)C(=O)N[C@@H](C)C(=O)N[C@@H](C)C(=O)N[C@@](C)(CCCCN)C(=O)N[C@@H](CCC(=O)O)C(=O)N[C@@H](Cc1ccccc1)C(=O)N[C@H](C(=O)N[C@@H](CCCCNC(=O)COCCOCCNC(=O)COCCOCCNC(=O)CC[C@H](NC(=O)CCCCCCCCCCC)C(=O)O)C(=O)N[C@@H](Cc1ccccc1)C(=O)N[C@H](C(=O)N[C@H](C(=O)N[C@@H](CCC(=O)O)C(=O)NCC(=O)NCC(N)=O)C(C)C)C(C)C)[C@@H](C)CC)C(=O)O [compound 448] (H-H[Aib]EGS[αMeF]TSDV[αMeS]SK([AEEA-AEEA-γGlu-Lauroyl])LEGK([AEEA-AEEA-γGlu-Lauroyl])AA[αMeK]EFIK([AEEA-AEEA-γGlu-Lauroyl])FVVEGG-NH2)												92.4	78.8	106	19.9	19.9
CCCCCCCCCCCCCCCC(=O)N[C@@H](CCC(=O)NCCCC[C@H](NC(=O)[C@@H](N)Cc1c[nH]cn1)C(=O)N[C@@H](CCC(=O)O)C(=O)NCC(=O)N[C@@H](CO)C(=O)N[C@@](C)(Cc1ccccc1)C(=O)N[C@H](C(=O)N[C@@H](CO)C(=O)N[C@@H](CC(=O)O)C(=O)N[C@H](C(=O)N[C@@](C)(CO)C(=O)N[C@@H](CO)C(=O)N[C@@](C)(Cc1ccccc1)C(=O)N[C@@H](CC(C)C)C(=O)N[C@@H](CCC(=O)O)C(=O)NCC(=O)N[C@@H](CCC(=O)O)C(=O)N[C@@H](C)C(=O)N[C@@H](C)C(=O)N[C@@](C)(CCCCN)C(=O)N[C@@H](CCC(=O)O)C(=O)N[C@@](C)(Cc1ccccc1)C(=O)N[C@H](C(=O)N[C@@H](C)C(=O)N[C@@](C)(Cc1ccccc1)C(=O)N[C@H](C(=O)N[C@H](C(=O)N[C@@](C)(CCCCN)C(=O)NCC(=O)NCC(N)=O)C(C)C)C(C)C)[C@@H](C)CC)C(C)C)[C@@H](C)O)C(=O)O [compound 98]	≥ 28000	≥ 28000	≥ 27500					≥ 28	≥ 28	≥ 28	≥ 28					
CC[C@H](C)[C@H](NC(=O)[C@](C)(Cc1ccccc1)NC(=O)[C@H](CCC(=O)O)NC(=O)[C@H](CCCCNC(=O)COCCOCCNC(=O)CCCCCCCCCCCCCCCCC(=O)O)NC(=O)[C@H](C)NC(=O)[C@H](C)NC(=O)[C@H](CCC(=O)O)NC(=O)CNC(=O)[C@H](CCC(=O)O)NC(=O)[C@H](CC(C)C)NC(=O)[C@](C)(Cc1ccccc1)NC(=O)[C@H](CO)NC(=O)[C@](C)(CO)NC(=O)[C@@H](NC(=O)[C@H](CC(=O)O)NC(=O)[C@H](CO)NC(=O)[C@@H](NC(=O)[C@](C)(Cc1ccccc1)NC(=O)[C@H](CO)NC(=O)CNC(=O)[C@H](CCC(=O)O)NC(=O)C(C)(C)NC(=O)[C@@H](N)Cc1c[nH]cn1)[C@@H](C)O)C(C)C)C(=O)N[C@@H](C)C(=O)N[C@@](C)(Cc1ccccc1)C(=O)N[C@H](C(=O)N[C@H](C(=O)N[C@@](C)(CCCCN)C(=O)NCC(=O)NCC(N)=O)C(C)C)C(C)C [compound 161]	160	62	112					≥ 27	≥ 27	≥ 27	≥ 27					
CC[C@H](C)[C@H](NC(=O)[C@](C)(Cc1ccccc1)NC(=O)[C@H](CCC(=O)O)NC(=O)[C@](C)(CCCCN)NC(=O)[C@H](C)NC(=O)[C@H](C)NC(=O)[C@H](CCC(=O)O)NC(=O)CNC(=O)[C@H](CCCCNC(=O)COCCOCCNC(=O)COCCOCCNC(=O)CC[C@H](NC(=O)CCCCCCCCCCCCCCCCC(=O)O)C(=O)O)NC(=O)[C@H](CC(C)C)NC(=O)[C@](C)(Cc1ccccc1)NC(=O)[C@H](CO)NC(=O)[C@](C)(CO)NC(=O)[C@@H](NC(=O)[C@H](CC(=O)O)NC(=O)[C@H](CO)NC(=O)[C@@H](NC(=O)[C@](C)(Cc1ccccc1)NC(=O)[C@H](CO)NC(=O)CNC(=O)[C@H](CCC(=O)O)NC(=O)C(C)(C)NC(=O)[C@@H](N)Cc1c[nH]cn1)[C@@H](C)O)C(C)C)C(=O)N[C@@H](C)C(=O)N[C@@](C)(Cc1ccccc1)C(=O)N[C@H](C(=O)N[C@H](C(=O)N[C@@](C)(CCCCN)C(=O)NCC(=O)NCC(N)=O)C(C)C)C(C)C [compound 114] (H-H[Aib]EGS[αMeF]TSDV[αMeS]S[αMeF]LK([AEEA-AEEA-γGlu-C18 diacid])GEAA[αMeK]E[αMeF]IA[αMeF]VV[αMeK]GG-NH2; N-terminus assumed)	550	458	503					≥ 25	≥ 25.4	≥ 25	≥ 25.4					
